From ChEMBL document CHEMBL1201862, “PubChem BioAssay data set” (2004)
Active and inactive are the calls of the source.

Legend:
Large T antigen = Large T antigen (Simian virus 40, UniProt P03070); format: functional, Betapolyomavirus macacae;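 also: Confirmatory-stage PubChem screen for compounds that inhibit SV40 T antigen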
[1] = biological target: T1, High affinity choline transporter 1 (Homo sapiens, UniProt Q9GZV3); test: CHT inhibitors, dose response, cell-based, 5-point CRC, membrane potential dye (AID 504840); format: functional
T1 sequence (Q9GZV3 whole entry): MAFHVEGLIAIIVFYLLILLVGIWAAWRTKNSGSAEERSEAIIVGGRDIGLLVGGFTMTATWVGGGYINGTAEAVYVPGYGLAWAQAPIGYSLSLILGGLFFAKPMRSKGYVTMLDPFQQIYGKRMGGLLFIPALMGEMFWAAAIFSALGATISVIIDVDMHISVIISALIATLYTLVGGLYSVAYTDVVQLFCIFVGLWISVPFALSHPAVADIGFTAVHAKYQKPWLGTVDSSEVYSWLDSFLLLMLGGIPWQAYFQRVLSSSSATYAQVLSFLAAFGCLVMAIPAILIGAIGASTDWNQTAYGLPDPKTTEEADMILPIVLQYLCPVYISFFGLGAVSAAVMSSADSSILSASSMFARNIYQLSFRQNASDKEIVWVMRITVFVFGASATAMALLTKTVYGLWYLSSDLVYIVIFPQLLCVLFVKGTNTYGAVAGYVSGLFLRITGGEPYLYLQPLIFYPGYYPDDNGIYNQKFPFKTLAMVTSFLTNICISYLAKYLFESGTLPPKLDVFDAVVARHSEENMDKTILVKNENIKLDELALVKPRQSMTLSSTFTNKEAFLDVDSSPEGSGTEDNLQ

[2] = biological target: T1, High affinity choline transporter 1; test: CHT inhibitors, dose response, cell-based, 10-point CRC, membrane potential dye (AID 588401); format: functional;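 also: membrane potential dye fluorescence of choline-evoked depolarization via CHT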
[3] = biological target: T2, Replicative DNA helicase DnaB (Mycobacterium tuberculosis, UniProt P9WMR3); test: DnaB intein splicing inhibitors, dose response, biochemical, cell-free fluorescence (AID 449749); format: functional
T2 sequence (P9WMR3 whole entry): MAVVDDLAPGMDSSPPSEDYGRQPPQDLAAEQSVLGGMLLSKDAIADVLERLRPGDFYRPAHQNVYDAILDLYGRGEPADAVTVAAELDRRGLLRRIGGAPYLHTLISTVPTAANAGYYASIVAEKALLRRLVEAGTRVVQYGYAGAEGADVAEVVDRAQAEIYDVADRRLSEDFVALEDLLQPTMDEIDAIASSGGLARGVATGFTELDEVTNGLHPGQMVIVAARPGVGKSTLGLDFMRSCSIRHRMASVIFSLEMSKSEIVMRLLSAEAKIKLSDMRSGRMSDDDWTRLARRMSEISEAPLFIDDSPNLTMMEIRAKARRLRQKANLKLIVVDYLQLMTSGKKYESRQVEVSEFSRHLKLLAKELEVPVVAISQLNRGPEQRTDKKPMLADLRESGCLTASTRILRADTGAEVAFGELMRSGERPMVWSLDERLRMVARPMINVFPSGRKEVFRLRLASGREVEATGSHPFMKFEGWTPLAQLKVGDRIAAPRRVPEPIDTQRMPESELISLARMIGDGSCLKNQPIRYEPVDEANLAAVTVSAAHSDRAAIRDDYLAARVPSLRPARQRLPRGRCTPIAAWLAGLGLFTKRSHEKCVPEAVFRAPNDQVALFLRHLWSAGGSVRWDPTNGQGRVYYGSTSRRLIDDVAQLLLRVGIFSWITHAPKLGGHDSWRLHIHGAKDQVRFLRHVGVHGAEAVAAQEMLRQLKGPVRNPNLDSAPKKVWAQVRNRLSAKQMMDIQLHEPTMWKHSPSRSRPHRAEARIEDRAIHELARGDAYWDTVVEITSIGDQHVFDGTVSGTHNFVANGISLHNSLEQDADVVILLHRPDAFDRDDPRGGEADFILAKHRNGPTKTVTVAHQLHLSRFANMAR

[4] = biological target: Heat shock protein HSP 90-alpha (Homo sapiens, UniProt P07900); format: functional, organism-based
Protein RecA = biological target: T3, Protein RecA (Mycobacterium tuberculosis, UniProt P9WHJ3); test: Fluorescence Cell-Free Homogeneous Dose Retest to Identify Inhibitors of RecA-Intein Splicing Activity. [Related pubchem assays (depositor defined):AID2097, AID2223, AID489010, AID492950]; format: functional
T3 sequence (P9WHJ3 whole entry): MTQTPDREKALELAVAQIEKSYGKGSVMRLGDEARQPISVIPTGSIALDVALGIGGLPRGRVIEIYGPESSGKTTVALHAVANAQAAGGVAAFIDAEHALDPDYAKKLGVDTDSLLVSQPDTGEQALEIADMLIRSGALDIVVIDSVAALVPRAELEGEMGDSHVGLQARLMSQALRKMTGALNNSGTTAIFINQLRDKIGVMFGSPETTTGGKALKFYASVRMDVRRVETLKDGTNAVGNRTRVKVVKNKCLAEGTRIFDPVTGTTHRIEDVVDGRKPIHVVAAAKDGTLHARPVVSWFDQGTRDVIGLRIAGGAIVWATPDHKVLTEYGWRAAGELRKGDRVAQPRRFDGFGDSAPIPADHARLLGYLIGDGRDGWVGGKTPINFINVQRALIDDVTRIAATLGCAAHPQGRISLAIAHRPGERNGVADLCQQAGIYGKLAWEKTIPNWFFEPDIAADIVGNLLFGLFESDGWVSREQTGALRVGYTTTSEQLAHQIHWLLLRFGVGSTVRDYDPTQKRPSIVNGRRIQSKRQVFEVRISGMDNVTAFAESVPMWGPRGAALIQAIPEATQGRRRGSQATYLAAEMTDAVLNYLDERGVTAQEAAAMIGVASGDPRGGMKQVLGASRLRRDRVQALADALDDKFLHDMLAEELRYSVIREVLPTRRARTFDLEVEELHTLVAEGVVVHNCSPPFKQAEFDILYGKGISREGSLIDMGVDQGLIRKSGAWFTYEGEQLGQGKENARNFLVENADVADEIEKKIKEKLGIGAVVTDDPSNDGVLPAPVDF

INS1 = test: beta cell apoptosis inhibitors, cytokine rescue, dose response, luminescence, retest (AID 449756); format: functional, cell-based; conditions: Rattus norvegicus;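 also: cell death triggered by IL-1 beta plus TNF-alpha plus IFN-gamma mixture; protective hits raise ATP signal compared with cytokine alone wells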
[5] = Shn3 3'UTR reporter inhibitors, dose response, cell-based, Clone20 osteoblasts, firefly luciferase, cherry-picked (AID 624132); format: functional;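 also: firefly luciferase luminescence from reporter carrying the Shn3 3'UTR in osteoblasts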
[6] = biological target: ATP-binding cassette sub-family B member 6 (Homo sapiens, UniProt Q9NP58); test: ABCB6 transporter inhibitors, dose response, K562-ABCB6 cells, flow cytometry, cherry pick 1 (AID 623955); format: functional; conditions: read-out: EC50_MICROM
Sequence of ATP-binding cassette sub-family B member 6 (Q9NP58 whole entry): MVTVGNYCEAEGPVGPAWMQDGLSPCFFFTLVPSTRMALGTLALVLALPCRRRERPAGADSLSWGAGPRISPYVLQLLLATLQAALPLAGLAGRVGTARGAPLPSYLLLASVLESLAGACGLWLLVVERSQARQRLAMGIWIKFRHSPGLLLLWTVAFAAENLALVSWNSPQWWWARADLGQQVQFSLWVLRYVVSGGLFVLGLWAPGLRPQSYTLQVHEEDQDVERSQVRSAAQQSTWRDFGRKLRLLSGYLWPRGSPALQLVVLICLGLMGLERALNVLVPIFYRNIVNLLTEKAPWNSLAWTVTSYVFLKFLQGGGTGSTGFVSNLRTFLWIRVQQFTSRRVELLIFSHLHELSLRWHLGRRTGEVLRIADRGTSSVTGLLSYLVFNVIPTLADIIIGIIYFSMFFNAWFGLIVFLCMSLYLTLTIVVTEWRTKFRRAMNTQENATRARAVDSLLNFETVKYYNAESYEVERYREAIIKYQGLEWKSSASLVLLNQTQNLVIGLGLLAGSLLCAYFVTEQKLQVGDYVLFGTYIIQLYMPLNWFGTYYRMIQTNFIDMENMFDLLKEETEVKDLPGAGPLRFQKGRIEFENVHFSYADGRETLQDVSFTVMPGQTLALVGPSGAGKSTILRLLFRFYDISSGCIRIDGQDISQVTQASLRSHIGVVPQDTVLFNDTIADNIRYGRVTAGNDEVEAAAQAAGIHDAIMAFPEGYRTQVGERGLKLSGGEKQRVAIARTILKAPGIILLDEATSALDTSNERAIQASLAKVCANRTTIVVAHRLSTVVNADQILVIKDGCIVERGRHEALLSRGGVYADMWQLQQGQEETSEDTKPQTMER

[7] = HepG2 cell cytotoxicity, dose response, cytotoxicity control for Shn3 inhibitor project, CellTiter-Glo, cherry-picked (AID 624134); format: functional, cell-based
[8] = control 3'UTR Renilla luciferase suppression, dose response, counter-screen for Shn3 inhibitor project, cell-based, Clone20-Shn3RL, cherry-picked (AID 624133); format: functional
[9] = system: Streptococcus sp. 'group A'; test: growth inhibition of control SK(-) GAS strain, dose response, counter-screen for streptokinase expression inhibitor project, luminescence, kanamycin, BacTiterGlo, confirmation (AID 1900); format: functional, organism-based
Streptokinase A = biological target: T4, Streptokinase A (Streptococcus pyogenes serotype M1, UniProt P10520); test: S. pyogenes streptokinase expression inhibitors, potency, dose response, plasminogen activation absorbance, OD405 (AID 1914); format: functional, Streptococcus pyogenes M1 GAS;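 also: secreted streptokinase activity via plasminogen activation per viability signal from cell pellet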
T4 sequence (P10520 whole entry): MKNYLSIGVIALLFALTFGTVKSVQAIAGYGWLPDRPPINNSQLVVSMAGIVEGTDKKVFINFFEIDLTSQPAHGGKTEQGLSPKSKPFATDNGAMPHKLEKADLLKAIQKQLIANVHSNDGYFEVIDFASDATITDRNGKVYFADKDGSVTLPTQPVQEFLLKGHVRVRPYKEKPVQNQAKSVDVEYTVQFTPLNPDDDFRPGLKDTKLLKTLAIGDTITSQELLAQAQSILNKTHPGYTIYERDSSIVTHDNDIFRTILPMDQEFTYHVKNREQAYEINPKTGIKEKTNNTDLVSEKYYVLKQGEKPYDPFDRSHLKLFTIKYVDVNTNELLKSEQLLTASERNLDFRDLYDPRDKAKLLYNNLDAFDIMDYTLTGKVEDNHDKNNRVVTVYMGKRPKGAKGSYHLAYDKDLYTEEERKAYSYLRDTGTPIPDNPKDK

Streptococcus = test: Group A Streptococcus viability loss, dose response, counter-screen for streptokinase expression inhibitor project, luminescence, BacTiterGlo (AID 1915); format: functional, organism-based;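 also: potency for reduction of bacterial viability or growth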
[10] = biological target: Dual specificity tyrosine-phosphorylation-regulated kinase 1A (Rattus norvegicus, UniProt Q63470); format: biochemical, Homo sapiens
[11] = biological target: DNA (cytosine-5)-methyltransferase 1 (Homo sapiens, UniProt P26358); test: DNMT1 methyltransferase inhibitors, confirmation, biochemical, fluorescent molecular beacon (AID 602386); format: functional
Sequence of DNA (cytosine-5)-methyltransferase 1 (P26358 whole entry): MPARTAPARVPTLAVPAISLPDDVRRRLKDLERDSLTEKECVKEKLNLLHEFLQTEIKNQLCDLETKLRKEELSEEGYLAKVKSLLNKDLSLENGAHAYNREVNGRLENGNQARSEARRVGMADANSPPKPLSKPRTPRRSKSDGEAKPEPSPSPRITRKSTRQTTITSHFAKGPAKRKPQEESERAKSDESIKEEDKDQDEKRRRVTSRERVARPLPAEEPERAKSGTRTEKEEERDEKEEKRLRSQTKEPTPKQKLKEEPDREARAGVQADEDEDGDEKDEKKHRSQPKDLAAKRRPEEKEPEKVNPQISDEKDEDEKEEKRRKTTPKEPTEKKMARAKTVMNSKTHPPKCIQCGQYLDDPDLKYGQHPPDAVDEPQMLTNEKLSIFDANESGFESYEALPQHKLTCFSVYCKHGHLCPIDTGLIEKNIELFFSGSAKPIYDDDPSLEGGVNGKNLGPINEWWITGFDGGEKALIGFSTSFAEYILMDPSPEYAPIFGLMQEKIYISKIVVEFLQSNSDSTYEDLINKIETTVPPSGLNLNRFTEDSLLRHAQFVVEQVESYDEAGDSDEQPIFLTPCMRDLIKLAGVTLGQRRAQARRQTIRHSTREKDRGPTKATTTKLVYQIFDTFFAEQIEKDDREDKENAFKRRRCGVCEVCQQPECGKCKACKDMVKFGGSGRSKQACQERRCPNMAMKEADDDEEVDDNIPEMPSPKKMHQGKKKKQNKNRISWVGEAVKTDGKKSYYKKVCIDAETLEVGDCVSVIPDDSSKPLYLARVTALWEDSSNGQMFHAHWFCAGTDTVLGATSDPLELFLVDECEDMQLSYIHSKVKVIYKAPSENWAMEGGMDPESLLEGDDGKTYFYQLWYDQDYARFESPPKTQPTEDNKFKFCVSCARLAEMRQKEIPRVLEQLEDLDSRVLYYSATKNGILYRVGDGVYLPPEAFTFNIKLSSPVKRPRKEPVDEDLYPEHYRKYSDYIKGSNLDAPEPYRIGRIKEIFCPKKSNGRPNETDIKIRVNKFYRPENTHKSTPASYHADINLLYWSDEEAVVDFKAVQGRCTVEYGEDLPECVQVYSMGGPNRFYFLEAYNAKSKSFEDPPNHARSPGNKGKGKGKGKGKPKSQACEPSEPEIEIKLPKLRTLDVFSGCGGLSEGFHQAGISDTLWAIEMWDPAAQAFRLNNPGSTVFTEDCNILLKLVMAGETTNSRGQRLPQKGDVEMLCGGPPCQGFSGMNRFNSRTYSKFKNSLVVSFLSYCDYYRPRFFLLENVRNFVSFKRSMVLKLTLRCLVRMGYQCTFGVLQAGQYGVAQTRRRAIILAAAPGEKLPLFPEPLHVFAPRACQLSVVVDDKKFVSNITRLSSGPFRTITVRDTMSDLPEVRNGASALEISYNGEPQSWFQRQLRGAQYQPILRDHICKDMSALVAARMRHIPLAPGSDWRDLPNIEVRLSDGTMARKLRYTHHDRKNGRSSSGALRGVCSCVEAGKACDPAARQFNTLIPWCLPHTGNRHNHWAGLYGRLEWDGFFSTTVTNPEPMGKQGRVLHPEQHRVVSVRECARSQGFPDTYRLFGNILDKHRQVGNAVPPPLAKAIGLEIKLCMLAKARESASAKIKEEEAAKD

[12] = biological target: T5, Small ubiquitin-related modifier 1 (Homo sapiens, UniProt P63165); test: inhibitors of SUMO1 peptide binding, dose response, biochemical, fluorescence polarization, uHTS hits (AID 624382); format: functional; conditions: read-out: IC50_Mean
T5 sequence (P63165 whole entry): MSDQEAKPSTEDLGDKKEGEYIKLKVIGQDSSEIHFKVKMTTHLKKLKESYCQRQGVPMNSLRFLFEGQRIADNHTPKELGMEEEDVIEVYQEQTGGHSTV

[13] = biological target: T6, Probable nicotinate-nucleotide adenylyltransferase (Staphylococcus aureus (strain N315), UniProt P65502); format: functional, Staphylococcus aureus subsp. aureus N315;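 as to IC50 Mean: confirmatory dose-response retesting of NadD inhibitor hits first found in an ultra-high-throughput screen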
T6 sequence (P65502 whole entry): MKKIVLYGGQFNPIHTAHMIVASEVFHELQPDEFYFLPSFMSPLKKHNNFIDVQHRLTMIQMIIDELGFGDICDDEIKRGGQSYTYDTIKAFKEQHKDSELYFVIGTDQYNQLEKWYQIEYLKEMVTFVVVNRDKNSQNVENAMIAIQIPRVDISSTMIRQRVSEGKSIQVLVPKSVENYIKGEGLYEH

[14] = biological target: T6, Probable nicotinate-nucleotide adenylyltransferase; format: functional, Staphylococcus aureus subsp. aureus N315; conditions: read-out: IC50_Mean
[15] = biological target: T5, Small ubiquitin-related modifier 1; test: inhibitors of SUMO1 partner interactions, dose response, biochemical, FRET (AID 624383); format: functional; conditions: read-out: IC50_Mean
[16] = biological target: Potassium voltage-gated channel subfamily KQT member 2 (Rattus norvegicus, UniProt O88943); test: KCNQ2 potassium channel inhibitors, dose response, cell-based, automated electrophysiology, set II, rat KCNQ2 (AID 588637); format: functional
Sequence of Potassium voltage-gated channel subfamily KQT member 2 (O88943 whole entry, the tested form may be a part): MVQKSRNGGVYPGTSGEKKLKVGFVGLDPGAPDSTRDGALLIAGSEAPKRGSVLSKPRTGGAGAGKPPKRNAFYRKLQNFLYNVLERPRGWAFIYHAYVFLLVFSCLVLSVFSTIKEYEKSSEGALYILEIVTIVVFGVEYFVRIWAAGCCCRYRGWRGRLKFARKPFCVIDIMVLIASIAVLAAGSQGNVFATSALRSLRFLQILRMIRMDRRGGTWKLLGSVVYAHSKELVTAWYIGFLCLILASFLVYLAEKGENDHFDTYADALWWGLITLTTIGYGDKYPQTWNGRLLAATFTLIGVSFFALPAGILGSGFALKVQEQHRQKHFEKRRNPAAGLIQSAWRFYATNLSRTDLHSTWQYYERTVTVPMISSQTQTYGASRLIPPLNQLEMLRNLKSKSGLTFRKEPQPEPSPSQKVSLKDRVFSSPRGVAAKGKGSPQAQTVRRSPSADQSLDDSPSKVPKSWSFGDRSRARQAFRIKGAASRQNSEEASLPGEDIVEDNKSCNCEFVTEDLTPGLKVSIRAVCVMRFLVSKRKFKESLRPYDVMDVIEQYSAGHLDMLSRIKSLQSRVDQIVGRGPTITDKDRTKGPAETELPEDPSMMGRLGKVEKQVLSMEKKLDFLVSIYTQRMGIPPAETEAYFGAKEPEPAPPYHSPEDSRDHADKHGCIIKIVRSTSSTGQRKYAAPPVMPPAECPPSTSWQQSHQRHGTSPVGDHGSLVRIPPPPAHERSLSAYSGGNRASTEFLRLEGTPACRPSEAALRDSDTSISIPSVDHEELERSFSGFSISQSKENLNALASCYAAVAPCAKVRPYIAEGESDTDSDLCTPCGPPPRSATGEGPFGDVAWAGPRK

[17] = inhibitors of clade B AD8 Env fusion, dose response, cell-based, cherry-pick (AID 652062); format: functional;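 also: luciferase signal from cell-cell fusion driven by HIV-1 clade B AD8 Env; potency is for inhibitors of fusion seen as a drop in luminescence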
Melanocortin receptor 4 [18] = biological target: T7, Melanocortin receptor 4 (Homo sapiens, UniProt P32245); test: MC4R antagonist potency on cAMP, dose response, cell-based, TR-FRET, biased antagonists (AID 602298); format: functional;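 also: antagonist potency against agonist-stimulated cAMP production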
T7 sequence (P32245 whole entry): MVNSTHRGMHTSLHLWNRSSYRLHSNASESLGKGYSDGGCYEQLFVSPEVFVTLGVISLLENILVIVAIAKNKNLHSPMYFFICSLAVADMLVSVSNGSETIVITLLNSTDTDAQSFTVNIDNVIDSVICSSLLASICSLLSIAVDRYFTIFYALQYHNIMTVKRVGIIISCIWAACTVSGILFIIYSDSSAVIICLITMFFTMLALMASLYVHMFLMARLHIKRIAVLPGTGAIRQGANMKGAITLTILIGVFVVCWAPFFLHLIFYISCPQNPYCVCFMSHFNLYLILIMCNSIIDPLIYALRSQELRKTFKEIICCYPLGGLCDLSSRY

[19] = nonselective inhibitors of cellular cAMP signaling, dose response, counter-screen for MC4R biased antagonist project, cell-based, TR-FRET cAMP detection (AID 602305); format: functional;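 also: U2OS cells stimulated with forskolin near its EC80 as the cAMP inducer; potency is for inhibition of forskolin-stimulated cAMP signaling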
Galanin receptor type 3 = Galanin receptor type 3 (Homo sapiens, UniProt O60755); test: Fluorescence-based cell-based primary high throughput dose response assay to identify antagonists of the Galanin Receptor 3 (GalR3).; format: functional
Sequence of Galanin receptor type 3 (O60755 whole entry): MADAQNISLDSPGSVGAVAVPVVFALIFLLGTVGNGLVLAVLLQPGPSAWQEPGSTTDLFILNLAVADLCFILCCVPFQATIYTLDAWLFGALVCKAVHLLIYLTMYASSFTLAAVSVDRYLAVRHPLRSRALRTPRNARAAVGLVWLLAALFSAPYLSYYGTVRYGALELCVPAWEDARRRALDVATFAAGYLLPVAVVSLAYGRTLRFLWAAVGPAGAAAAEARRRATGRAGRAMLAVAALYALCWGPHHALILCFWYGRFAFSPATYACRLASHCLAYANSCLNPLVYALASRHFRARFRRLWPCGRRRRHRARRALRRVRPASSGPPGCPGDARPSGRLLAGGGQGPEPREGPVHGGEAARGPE

cells = format: functional, cell-based; conditions: HEK-CNG
[20] = biological target: T8, Mitochondrial peptide methionine sulfoxide reductase (Bos taurus, UniProt P54149); format: functional;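 also: absorbance read-out, biochemical high-throughput dose-response screen for MsrA inhibitors, confirmatory; recombinant bovine MsrA coupled to E. coli TrxB with NADPH and selenocystamine; potency is for inhibitors of MsrA activity on DMSO substrate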
T8 sequence (P54149 whole entry): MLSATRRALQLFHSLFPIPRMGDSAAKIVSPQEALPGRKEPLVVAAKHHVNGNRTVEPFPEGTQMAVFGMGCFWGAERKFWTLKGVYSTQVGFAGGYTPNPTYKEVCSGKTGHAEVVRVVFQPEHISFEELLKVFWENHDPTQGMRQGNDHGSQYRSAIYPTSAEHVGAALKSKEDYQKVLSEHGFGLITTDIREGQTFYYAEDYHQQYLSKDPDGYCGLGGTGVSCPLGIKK

Melanocortin receptor 4 [21] = biological target: T7, Melanocortin receptor 4; format: functional, cell-based
[22] = biological target: T9, DNA repair protein RAD52 homolog (Homo sapiens, UniProt P43351); format: functional, biochemical
T9 sequence (P43351 whole entry): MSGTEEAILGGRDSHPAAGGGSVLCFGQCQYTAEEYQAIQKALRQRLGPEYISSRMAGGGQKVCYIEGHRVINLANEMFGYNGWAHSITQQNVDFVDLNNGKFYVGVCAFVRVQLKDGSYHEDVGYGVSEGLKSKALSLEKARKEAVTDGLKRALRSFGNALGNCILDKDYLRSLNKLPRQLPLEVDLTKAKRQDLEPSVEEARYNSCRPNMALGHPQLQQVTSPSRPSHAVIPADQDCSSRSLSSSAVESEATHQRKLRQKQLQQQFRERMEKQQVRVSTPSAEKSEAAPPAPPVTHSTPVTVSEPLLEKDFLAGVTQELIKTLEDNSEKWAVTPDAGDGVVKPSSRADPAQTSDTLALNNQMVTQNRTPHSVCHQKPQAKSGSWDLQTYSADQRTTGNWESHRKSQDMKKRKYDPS

Sequence of Large T antigen (P03070 whole entry): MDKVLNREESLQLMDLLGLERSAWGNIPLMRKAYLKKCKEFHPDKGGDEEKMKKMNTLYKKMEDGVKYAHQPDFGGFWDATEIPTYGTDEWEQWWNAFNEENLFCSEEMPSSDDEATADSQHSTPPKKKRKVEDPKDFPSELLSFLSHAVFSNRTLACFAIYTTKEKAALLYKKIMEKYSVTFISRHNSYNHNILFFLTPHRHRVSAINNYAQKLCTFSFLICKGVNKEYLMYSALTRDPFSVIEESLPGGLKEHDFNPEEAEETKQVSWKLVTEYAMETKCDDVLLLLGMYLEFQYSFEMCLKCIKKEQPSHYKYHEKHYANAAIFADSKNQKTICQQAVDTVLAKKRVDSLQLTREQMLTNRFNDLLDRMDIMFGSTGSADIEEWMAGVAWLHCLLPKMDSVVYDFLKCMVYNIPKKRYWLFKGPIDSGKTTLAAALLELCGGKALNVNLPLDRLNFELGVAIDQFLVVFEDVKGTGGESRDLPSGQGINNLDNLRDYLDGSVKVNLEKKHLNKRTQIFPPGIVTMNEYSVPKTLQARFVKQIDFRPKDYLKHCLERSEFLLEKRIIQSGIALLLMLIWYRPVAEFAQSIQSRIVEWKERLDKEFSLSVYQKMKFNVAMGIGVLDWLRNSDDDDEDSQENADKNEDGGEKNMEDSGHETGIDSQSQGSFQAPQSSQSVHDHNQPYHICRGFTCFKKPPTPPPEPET

CCOC(=O)c1c(N)ssc1=S
active: IC50 (Large T antigen) 95.5 µM | IC50 [1] 8.48 µM | IC50 [2] 3.81 µM

Cc1cccc(NC(=O)c2nc(S(=O)(=O)Cc3ccccc3)ncc2Cl)c1
active: AC50 [3] 21.9 µM | AC50 [4] 2.42 µM | EC50 (Protein RecA) 10.6 µM | AC50 (INS1) 10.3 µM | AC50 [5] 2.66 µM | EC50 [6] 21.5 µM | AC50 [7] 17.5 µM | AC50 [8] 6.26 µM

O=S(=O)(Nc1c(S(=O)(=O)c2ccccc2)c2nc3ccccc3nc2n1C1CCCCC1)c1ccccc1
inactive: IC50 [12] > 66.6 µM
active: EC50 [9] 5.18 µM | EC50 (Streptokinase A) 5.18 µM | EC50 (Streptococcus) 12 µM | AC50 [10] 26.7 µM | IC50 [11] 5.23 µM | IC50 [13] 5.42 µM | IC50 [14] 21.7 µM | IC50 [15] 9.65 µM

CN1/C(=C\C(=S)NC(=O)c2cccc(Br)c2)C(C)(C)c2ccccc21
active: IC50 [16] 4.27 µM | AC50 (INS1) 3.96 µM

Cc1cc(Cl)c(S(=O)(=O)N2CCCC2)cc1OCC(=O)NC1CCCCC1
active: IC50 [1] 4.68 µM | IC50 [2] 4.47 µM | AC50 [17] 18.1 µM

O=C(CSc1c2c(nc3cc(Cl)ccc13)CCCC2)NCCN1CCOCC1
inactive: IC50 (Melanocortin receptor 4 [18]) > 64.6 µM | IC50 [19] > 64.6 µM

CC(=O)OC[C@]12CC[C@H]3[C@@](C)(CC[C@H]4C(C)(C)CCC[C@]34C)[C@@H]1CC(C1=CC(=O)OC1O)O2 (stereo partly drawn)
inactive: IC50 (Melanocortin receptor 4 [18]) 15.2 µM | IC50 [19] 55 µM | EC50 (cells) > 29.9 µM
active: AC50 [5] 0.634 µM | AC50 [7] 8.6 µM | AC50 [8] 3.12 µM | IC50 (Galanin receptor type 3) > 1.11 µM

Cc1cc(C(=O)N/N=C/C=C/c2ccc([N+](=O)[O-])cc2)[nH]n1
inactive: IC50 [20] 155 µM

CCCCCCCCCCCCCCCC[n+]1cccc(C(=O)N(CC)CC)c1
inactive: EC50 (Melanocortin receptor 4 [21]) > 89.2 µM
active: AC50 [4] 9.18 µM | AC50 [22] 5.29 µM
